Data taken from patent publication US10620225B2, “Detection of polymyxins” (Randox Laboratories Limited, priority 2014, dated 2020).

Key:
Assay type in all cases: binding, sheep
[1] = tested on: Polymyxin B derived antibody; test: Competitive biochip immunoassay, standard curves with Polymyxin B derived antibody and Colistin-based tracer; conditions: for CR (percentage cross-reactivity) / IC50 (standard concentration which produces 50% inhibition of maximal signal): Polymyxin B derived antibody, Colistin-based tracer
Experimental: (§1) The process of developing an immunoassay is well known to the person skilled in the art. Briefly, for a competitive immunoassay in which the target analyte is a non-immunogenic molecule such as a hapten, a general immunoassay development process outlined. Following antibody production, a detecting agent is added to a sample containing the target analyte and the raised antibodies, and the detecting agent and analyte compete for binding to the antibodies. The process may comprise fixing said serum antibodies to a solid state device such as a polystyrene support or a ceramic chip. The antibodies can be polyclonal or monoclonal using standard techniques, but the current invention makes use of polyclonal antibodies. The signal emitted in the immunoassay is proportionate to the quantity of detecting agent bound to the antibodies which in turn is inversely proportionate to the analyte concentration. The signal can be detected or quantified by comparison with a calibrator.
(§2) 175 μl of assay diluent, then 25 μl of Polymyxin diluted in calibrator base was added to the appropriate wells. Biochips spotted with antibody of the invention were incubated for 30 min at 25° C. in a thermo-shaker at 370 rpm. 100 μl Tracer of the invention was added to the appropriate wells. Biochips were incubated for 60 min at 25° C. in a thermo-shaker at 370 rpm. Biochips were washed with TBST (2 quick washes followed by 4 washes at 2 min intervals). Biochips were developed with 250 μl signal: peroxide (1:1) for 2 min in the dark. Biochips were imaged on the Randox Investigator (2×60 sec images). All biochips were manually processed.

Antibody RS2790 = test: Competitive biochip immunoassay with Polymyxin B-KLH derived antibody RS2790 and Colistin-HRP tracer
Experimental: as §1, §2

Antibody RS2801 = test: Competitive biochip immunoassay with Polymyxin B-KLH derived antibody RS2801 and Colistin-HRP tracer
Experimental: as §1, §2

Antibody RS2830 = test: Competitive biochip immunoassay with Polymyxin B-KLH derived antibody RS2830 and Colistin-HRP tracer
Experimental: as §1, §2

[2] = antibody 0.1 mg/ml, Colistin-HRP tracer dilution 1/50K
[3] = antibody 0.1 mg/ml, Colistin-HRP tracer dilution 1/100K
[4] = antibody 0.1 mg/ml, tracer dilution 1/50K
[5] = antibody 0.1 mg/ml, tracer dilution 1/100K
[6] = antibody 0.75 mg/ml, Colistin-HRP tracer dilution 1/50K
[7] = antibody 0.75 mg/ml, Colistin-HRP tracer dilution 1/100K
[8] = antibody 0.75 mg/ml, tracer dilution 1/50K
[9] = antibody 0.75 mg/ml, tracer dilution 1/100K
[10] = antibody 0.1 mg/ml, Colistin-HRP tracer dilution 1/500K
[11] = antibody 0.1 mg/ml, Colistin-HRP tracer dilution 1/1000K
[12] = antibody 0.1 mg/ml, tracer dilution 1/500K
[13] = antibody 0.1 mg/ml, tracer dilution 1/1000K
[14] = antibody 0.75 mg/ml, Colistin-HRP tracer dilution 1/500K
[15] = antibody 0.75 mg/ml, Colistin-HRP tracer dilution 1/1000K
[16] = antibody 0.75 mg/ml, tracer dilution 1/500K
[17] = antibody 0.75 mg/ml, tracer dilution 1/1000K

| Substance | CR (percentage cross-reactivity) [1] | IC50 (standard concentration which produces 50% inhibition of maximal signal) [1] | Relative % Cross-reactivity (Antibody RS2790; [2]) | Relative % Cross-reactivity (Antibody RS2790; [3]) | Relative Binding (IC50) (Antibody RS2790; [4]) | Relative Binding (IC50) (Antibody RS2790; [5]) | Relative % Cross-reactivity (Antibody RS2790; [6]) | Relative % Cross-reactivity (Antibody RS2790; [7]) | Relative Binding (IC50) (Antibody RS2790; [8]) | Relative Binding (IC50) (Antibody RS2790; [9]) | Relative % Cross-reactivity (Antibody RS2801; [10]) | Relative % Cross-reactivity (Antibody RS2801; [11]) | Relative Binding (IC50) (Antibody RS2801; [12]) | Relative Binding (IC50) (Antibody RS2801; [13]) | Relative % Cross-reactivity (Antibody RS2801; [14]) | Relative % Cross-reactivity (Antibody RS2801; [15]) | Relative Binding (IC50) (Antibody RS2801; [16]) | Relative Binding (IC50) (Antibody RS2801; [17]) | Relative % Cross-reactivity (Antibody RS2830; [10]) | Relative % Cross-reactivity (Antibody RS2830; [11]) | also measured |
| --- | --- | --- | --- | --- | --- | --- | --- | --- | --- | --- | --- | --- | --- | --- | --- | --- | --- | --- | --- | --- | --- |
| Polymyxin B | (CR = 100%) | 0.931 ng/mL | 100% | 100% | 0.14 ng/mL | 0.37 ng/mL | 100% | 100% | 0.14 ng/mL | 0.59 ng/mL | 100% | 100% | 0.09 ng/mL | 0.12 ng/mL | 100% | 100% | 0.16 ng/mL | 0.13 ng/mL | 100% | 100% | B/Bo ([1]; standard conc 0.078 ng/ml): 86%; B/Bo ([1]; standard conc 0.156 ng/ml): 78%; B/Bo ([1]; standard conc 0.313 ng/ml): 64%; B/Bo ([1]; standard conc 0.625 ng/ml): 56%; B/Bo ([1]; standard conc 1.250 ng/ml): 51%; B/Bo ([1]; standard conc 2.500 ng/ml): 38%; B/Bo ([1]; standard conc 5.000 ng/ml): 27%; B/Bo ([1]; standard conc 10.000 ng/ml): 16%; Relative Binding (IC50) (Antibody RS2830; [12]): 0.15 ng/mL; Relative Binding (IC50) (Antibody RS2830; [13]): 0.17 ng/mL; Relative % Cross-reactivity (Antibody RS2830; [14]): 100%; Relative % Cross-reactivity (Antibody RS2830; [15]): 100%; Relative Binding (IC50) (Antibody RS2830; [16]): 0.17 ng/mL; Relative Binding (IC50) (Antibody RS2830; [17]): 0.22 ng/mL |
| Colistin | (CR = 80%) | 1.191 ng/mL | 5% | 23% | 3.02 ng/mL | 1.60 ng/mL | 8% | 59% | 1.72 ng/mL | 1.01 ng/mL | 20% | 15% | 0.47 ng/mL | 0.78 ng/mL | 67% | 62% | 0.24 ng/mL | 0.22 ng/mL | 6% | 5% | B/Bo ([1]; standard conc 0.391 ng/ml): 71%; B/Bo ([1]; standard conc 0.781 ng/ml): 58%; B/Bo ([1]; standard conc 1.563 ng/ml): 44%; B/Bo ([1]; standard conc 3.125 ng/ml): 33%; B/Bo ([1]; standard conc 6.250 ng/ml): 17%; B/Bo ([1]; standard conc 12.500 ng/ml): 11%; B/Bo ([1]; standard conc 25.000 ng/ml): 9%; B/Bo ([1]; standard conc 50.000 ng/ml): 6%; Relative Binding (IC50) (Antibody RS2830; [12]): 2.54 ng/mL; Relative Binding (IC50) (Antibody RS2830; [13]): 3.62 ng/mL; Relative % Cross-reactivity (Antibody RS2830; [14]): 8%; Relative % Cross-reactivity (Antibody RS2830; [15]): 9%; Relative Binding (IC50) (Antibody RS2830; [16]): 2.16 ng/mL; Relative Binding (IC50) (Antibody RS2830; [17]): 2.47 ng/mL |
